From a melting point compilation (Tetko et al.; mined from patent text by program, amines drawn as free bases though some values may be those of a salt)

| Structure (SMILES) | melting point [°C] |
| --- | --- |
| O=C1c2ncccc2C(=O)c2c(-c3ccccc3NC(=O)C(F)(F)F)ccnc21 | 205 |
| Clc1ccccc1CSc1nnc(-c2ccc3c(c2)CCO3)o1 | 140 to 141 |
| Oc1ccc(-n2ccc(Nc3ccccc3)n2)cc1 | 182 to 185 |
| Clc1cccc(-c2cn3c(n2)sc2ccccc23)c1 | 173 to 175 |
| Cc1nc(NC(=O)c2ccco2)sc1C(=O)c1sc(NC(=O)c2ccco2)nc1C | 198 to 199 |
| NC(=O)N1CC(Oc2ccc(Cl)c(Cl)c2)C1 | 179 to 184 |
| Cc1cc2ccccn2c1 | 57 to 58 |
| CS(=O)(=O)C(=C1CN(C(c2ccccc2)c2ccccc2)C1)c1ccccc1F | 188 |
| CCOC(=O)c1cnoc1-c1ccc(-c2ccccc2)cc1 | 73 to 75 |
| N#Cc1cncc(NCc2ccccc2)c1 | 131 |
| CC1=C(C(N)=O)C(c2cccc([N+](=O)[O-])c2)n2ccnc2N1 (centres undefined) | 238 to 240 |
| CCOC(=O)c1c(N)sc(N)c1C(=O)OCC | 155 to 158 |
| COC(=O)CC[C@H]1CC[C@H](NC(=O)N(NC=O)c2ccc(C#N)cc2)CC1 | 140 to 142 |
| Cc1cccc(-c2[nH]c(C(C)C)nc2-c2cccc(-c3ccc(S(C)(=O)=O)cc3)c2)n1 | 104 to 106 |
| O=C1CCC(c2ccc(Cl)c(Cl)c2)c2ccccc2N1 (centres undefined) | 191 to 194 |
| C=CCn1c(=O)c2[nH]c(/C=C/c3ccc(OC)c(OC)c3)nc2n(CC=C)c1=O | 252 |
| OCc1cnc2sc3c(n12)CCCCC3 | 145 to 146 |
| COC(=O)C1CCC2C3CCC4CC(O)C(O)CC4(C)C3C(NC3CCCCC3)CC12C (centres undefined) | 199 to 202 |
| O=S1(=O)NCCN(C2CC2)c2ccc(Oc3ccccc3)cc21 | 119 |

| Structure (SMILES) | melting point [°C] |
| --- | --- |
| CC(=S)NCC1CN(c2ccc(S(=O)CCF)c(F)c2)C(=O)O1 (centres undefined) | 161 |
| CN(C(=O)c1ccccc1N(CC(=O)N1CCCC(C)(C)C1)C(=O)CN1C(=O)c2ccccc2C1=O)c1ccccc1 | 180 |
| CCSC(N)=C(C#N)C#N | 180 to 182 |
| O=C(NO)[C@H]1CN(c2ccc(N3CCOCC3)c(F)c2)C(=O)O1 | 141 to 143 |
| O=c1cc(OCc2ccccc2)cc(C=Cc2ccc3c(c2)OCO3)o1 | 150 to 152 |
| CSc1ccc(-c2coc3ccc(-c4nnc(C)o4)cc23)cc1 | 173 to 174 |
| Clc1nc2ccccc2c2c1ncn2Cc1ccccn1 | 217 to 220 |
| CC(C)C(NC=O)C(=O)O (centres undefined) | 143 to 145 |
| N#Cc1ccc(C2C(=O)N(Cc3ccc(F)cc3)Cc3cncn32)cc1 (centres undefined) | 132 to 135 |
| Cc1ncc(C=S)c(Nc2ccccc2)n1 | 106 |
| O=C1Nc2cccc(Cl)c2C(=O)N2CCC[C@@H]12 | 264 to 266 |
| Nc1c(-c2csc(-c3ccncc3)n2)c(=O)[nH]c2ccc(Cl)cc12 | > 220 |
| COC(=O)Nc1nc(OC)cc(OC)n1 | 81 to 83 |
| Cc1oc(-c2ccc(Cl)cc2)nc1CO | 130 to 131 |
| Oc1cccc(/C=C/c2ccccc2)c1 | 125 to 126 |
| Cc1[nH]n(Cc2ccc([N+](=O)[O-])cc2)c2nc(-c3ccncc3)nc(=O)c1-2 | 275 to 281 |
| CN(C)C=Nc1nc2ncn(C)c(=S)n2n1 | > 300 |
| C[Si](C)(C)NC(=O)CC(=O)N[Si](C)(C)C | 72 to 76 |
| N#Cc1cnc2cc(Cl)c([N+](=O)[O-])cc2c1Cl | 143 to 153 |

| Structure (SMILES) | melting point [°C] |
| --- | --- |
| Cc1ccc(F)c(CSc2nc(N[C@H](C)CO)c3ncc(=O)[nH]c3n2)c1 | 202 to 204 |
| N#Cc1c(O)cc(C(F)(F)F)cc1Cl | 138 |
| CCOC(=O)C(=CNC1CC1)C(=O)c1c(C)c(F)c(F)c(F)c1F | 72 to 74 |
| O=C(Nc1ccc(CN2C(=O)[C@H]3CCC[C@H]3N(C(=O)CN3C(=O)c4ccccc4C3=O)c3ccccc32)cc1)c1cccc(F)c1 (relative stereo) | 256 to 259 |
| Clc1ccc(-c2cc3ccccc3s2)cc1 | 193 to 194 |
| Cc1ccc(-c2c(-c3ccc(S(C)(=O)=O)cc3)cnn(-c3cccc(Cl)c3)c2=O)cc1 | 222 to 224 |
| Cc1ncc(C(=O)O)nc1C | 187 |
| CC(C)(CC/C=C\[C@@H]1C[C@@H](NS(=O)(=O)c2ccc(Cl)cc2)CN1S(=O)(=O)c1ccc(Cl)cc1)C(=O)O | 159 to 160 |
| CC(=O)C=C1C=C(C(C)(C)C)C(=O)C(C(C)(C)C)=C1 | 70 to 72 |
| Nc1cc([N+](=O)[O-])ccc1OC(F)(F)F | 90 to 91 |
| Cn1c(NN)nc2ccc(O)cc2c1=O | > 300 |
| CCC(=O)C1(O)CC=C2CC3C4C=CC(O)C5OC1=C2C45CCN3C (centres undefined) | 85 to 86 |
| CCc1nn(-c2ccccn2)c2nc3cc(F)c(F)cc3c(Cl)c12 | 160 to 161 |
| CCNCCc1c[nH]c2ccc(Cn3cncn3)cc12 | 106 to 107 |
| CS(=O)(=O)c1ccc(-c2cnn(-c3ccc(F)cc3)c(=O)c2COc2ccccc2)cc1 | 42 to 75 |
| CC(=O)NC1(c2ccc(CN3CCN(c4ncccn4)CC3)cc2)CC1 | 145 to 146 |
| O=C1N=C(N2CCOCC2)SC1Cc1cccc(-c2ccc(O)c(C34CC5CC(CC(C5)C3)C4)c2)c1 (centres undefined) | 129 to 131 |
| O=c1[nH]c2cccnc2o1 | 252 |
| N#Cc1cccc2c(Cl)ccc([N+](=O)[O-])c12 | 210 to 212 |

More lines, now with the values ahead:

| melting point [°C] | Structure (SMILES) |
| --- | --- |
| 273 to 275 | Cc1cc(C(=O)O)nn1CC(=O)Nc1ccccc1 |
| 163 to 166 | CCOP(=O)(CC(=O)NNc1nc2ccc(C(F)(F)F)cc2n(OCc2ccccc2)c1=O)OCC |
| 155 to 158 | CCCC(c1ccc(C(=O)O)cc1OCc1ccc(Br)cc1)n1ccnc1 (centres undefined) |
| 125 | CC(C)(C)OC(=O)NC(C(=O)O)c1ccccc1O (centres undefined) |
| 191 to 192 | O=C(O)COc1cccc2c(CNS(=O)(=O)Cc3ccccc3)coc12 |
| 245 to 246 | COc1ccc([N+](=O)[O-])c(NCCC[C@H](N)C(=O)O)c1 |
| 265 | COc1ccc(C(=O)C2=C(O)C(=O)N(c3ccc(C)nn3)C2c2ccc(OC(F)(F)F)cc2)cc1 (centres undefined) |
| 167 to 169 | CCCc1cn(Cc2ccc(C(=O)OC)cc2OC)c2cc(C=C(C)C(=O)O)ccc12 |
| 129 | Cn1c(=O)n(Cc2ccccc2)c2cc(Cn3ccnc3)ccc21 |
| 142 to 144 | Cc1csc2[nH]c(=O)n(CCC(C(=O)NO)N(C)S(=O)(=O)c3ccc(Oc4ccccc4)cc3)c(=O)c12 (centres undefined) |
| 83 to 85 | COc1ccc(OCc2cccc(OCc3ccc4ccccc4n3)c2)cc1 |
| 83 to 85 | O=C1c2ccccc2C(=O)N1CCCSc1ccccc1 |
| 85 to 93 | CCCNC(=O)C(C)Cc1ccc2c(c1)c(Cc1ccc(C(=O)O)cc1OC)cn2CCC (single isomer, unassigned; (-)) |
| 202 to 205 | COc1ccc(C)cc1NC(=O)Nc1ccc(C2CCN(C(=O)Nc3cc(OCCO)ccc3Cl)CC2)cc1 |
| 175 to 177 | COc1ccc(C(=O)Nc2c(Cl)cncc2Cl)cc1OC1COCC1OC (centres undefined) |
| 95 to 98 | COc1cc(Oc2cccc(OC(F)(F)F)c2)nc(C(=O)Nc2ccccc2)c1 |
| 45 to 52 | CN1C(C)(C)CC(OC(=O)CCc2cc(-n3nc4ccc(S(=O)(=O)c5ccccc5)cc4n3)c(O)c(C(C)(C)C)c2)CC1(C)C |
| 119 to 120 | COc1ccc(COC(=O)n2c(S(=O)Cc3ccc(C)cn3)nc3cscc32)cc1 (centres undefined) |
| 230 to 233 | N#Cc1ccc(NCC(=O)Nc2c(Cl)ccc3nc(N4CC[C@@H](O)C4)ccc23)cc1 |
| 188 to 189 | CC(C)(C)n1nc(Cc2ccccc2)c2c(N)nc(-c3ccncc3)nc21 |
| 176 to 178 | O=c1c(Br)c(OCc2ccc(F)c(F)c2F)ccn1Cc1cccc(F)c1 |

| melting point [°C] | Structure (SMILES) |
| --- | --- |
| 52 to 55 | Nc1c(Cl)cc(C(O)CNCCCCCCOCCCc2ccc(Br)cn2)cc1Cl (centres undefined) |
| 90 to 92 | CC(OCCc1ccc(-c2ccc(Cl)cc2)cc1)C(=O)O (centres undefined) |
| 90 to 98 | CCCCC1=NC2(CCCC2)C(=O)N1Cc1ccc(-c2ccccc2S(=O)(=O)Nc2noc(C)c2C)c(CO)c1 |
| 122 | COC(=O)Cc1ccc(OCC(C)NC(C)C(O)c2ccccc2)cc1 (centres undefined) |
| 115 to 118 | CS(=O)(=O)c1ccc(C(CC2CCCC2)C(=O)Nc2nc3ccccc3s2)cc1C#N (centres undefined) |
| 107 to 109 | CCOC(=O)c1c(C)oc(=O)c(-c2c(C)cc(C)cc2C)c1OC(C)=O |
| 149 to 150 | CCCCOc1c(CNC(=O)OC(C)(C)C)n(CC(C)(C)C)c(=O)c2cc(F)ccc12 |
| 116 to 119 | COC(=O)[C@H](CN1CCC(=C2c3ccccc3C=Cc3ccccc32)CC1)NC(=O)OCc1ccccc1 |
| 187 to 188 | CCc1cnc2c(NC(=O)c3c(Cl)cccc3Cl)cccc2c1-n1ccnc1 |
| 208 to 210 | O=C(Nc1ccc(C(F)(F)F)cc1)Nc1cccc(C(=O)N2CCOCC2)n1 |
| 214 to 216 | COc1nc2ccccc2c2c1ncn2CC(O)CO (centres undefined) |
| 112 to 114 | CCOC(=O)c1cc(C)n(-c2cccc(N(C)C)c2)c1-c1ccccc1 |
| 96 | CCOC(=O)c1ccc(C(C)=Cc2ccc3ccccc3c2)cc1 |
| 123 to 124 | COCOc1ccc(-n2c(SCc3ccc(Br)cc3)nc3ccc(Cl)cc32)cc1 |
| 230 to 233 | CCCNCC1CCN(c2nc3c(cc2F)c(=O)c(C(=O)O)cn3C2CC2)C1 (centres undefined) |
| 124 to 125 | CC(C)(C)c1ccc(C(=O)c2c(N)sc3c2CCN(Cc2ccccc2)C3)cc1 |
| > 200 | COc1ccc(C(C)(C)C)cc1NC(=O)Nc1ccc(-c2cnc3c(c2)NC(=O)CO3)c2ccccc12 |
| 211 to 213 | CN(C)c1ccc(NC(=O)NC2CCCC2)c(C(=O)NCC2CCN(C(c3ccccc3)c3ccccc3)CC2)c1 |
| 113 to 116 | O=C(Cl)c1ccccc1SCc1ccccc1 |
| 275 | COc1cc(C(=O)O)c(Br)cc1C(=O)O |
| 204 to 206 | CCCc1c(C(=O)NCc2ccc(-c3ccc(OCC(=O)O)c(Br)c3)cc2)cnn1-c1ccccc1 |
